Converted amounts (≈) assume the structure as drawn.
Tests used:
[1] = test system: Escherichia coli (ATCC 25922); assay: Susceptibility (MIC, PAE, MBC), broth microdilution; conditions: Escherichia coli
Experimental: (§1) MICs were determined by the broth microdilution method according to CLSI methods (Clinical and Laboratory Standards Institute, 2005). Inoculants were incubated at 37° C. on cation adjusted Mueller Hinton (MH) Broth for 18 to 24 h. Compound were dissolved in media to 10 doubling dilutions from 128 to 0.125 μg/mL. All the bacterial strains were grown in 96 well plate with low evaporation lid (Falcon, Becton Dickinson) in presence of derivatives of benzimidazoles at 0.125, 0.25, 0.5, 1, 2, 4, 8, 16, 32, 64, 128, 256 μg/mL concentrations. […] Plates were read by Tecan Micro-plate Reader at 600 nm.

E. coli ATCC 25922 = assay: Mouse systemic infection (septicemia) model; assay type: in vivo, Balb/c mice
Experimental: Female Balb/c mice weighing 20-25 g of 6-8 weeks old were injected with E. coli ATCC 25922 (0.5×10^8 CFU in 0.1 mL saline) intraperitoneally. […] Each treatment or control group had 10 mice. Mortality was recorded daily for 7 days post infection.

K. planticola (1164) = assay: HN12b in combination with efflux pump inhibitors (CB method, FICI)
Experimental: (§2) 96-well microtiter plates containing MIC25 concentrations of the Efflux pump inhibitor (CCCP, PAβN) and HN12b antimicrobial drugs alone and in CB combination were used. The MICs of the individual drugs HN12b, PAβN and CCCP (0.25 to 128 μg/ml) and of the combinations were determined using the broth microdilution technique as recommended by the CLSI. Briefly, the broth microdilution plates were inoculated with each test organism to yield the appropriate density (10^5 CFU/ml) in 100 μl Mueller-Hinton broth (MHB) and incubated for 24 h at 37° C. in ambient air. One well with no antibiotic was used as a positive growth control on each plate. Plates were read for visual turbidity, and results were recorded after 24 h of incubation at 37° C. in ambient air by using a magnifying mirror reader, as turbidity in wells indicated growth of the microorganism. The MIC was determined as the well in the microtiter plate with the lowest drug concentration at which there was no visible growth. […] MICAB was defined as the MIC of drug A in the presence of drug B; MICBA was defined as the MIC of drug B in the presence of drug A.
(§3) The fractional inhibitory concentration index (FICI) was calculated for each antibiotic in each combination by using the following formula: FICA+FICB=FICI, where FICA equals the MIC of drug A in combination divided by the MIC of drug A alone and FICB equals the MIC of drug B in combination divided by the MIC of drug B alone. The FICIs were interpreted as follows: FICI of ≤0.5 will correspond to synergy; FICI of >0.5 to ≤1 will correspond to additivity; FICI of >1 to ≤4 will correspond to no interaction (indifference), and FICI of >4 will correspond antagonism.

E. coli K12 mutant ΔompF = assay: Susceptibility of E. coli K12 and mutants (MIC90); conditions: Escherichia coli
Experimental: as §1

[2] = test system: Acinetobacter baumannii (AB387); assay: Susceptibility (MIC50/MIC90), broth microdilution
Experimental: as §1

E. coli Topoisomerase IA = E. coli Topoisomerase IA (Escherichia coli, UniProt P06612); assay: Topoisomerase IA cleavage and religation assay; assay type: biochemical; conditions: biochemical assays and computational studies
Experimental: Compounds at different concentrations were added to DNA cleavage reaction mixtures (20 μl) containing 50 mM TrisHCl, pH 7.5, 2 mM MgCl2 0.2 mM DTT, 0.5 mM EDTA, 30 μg/ml BSA, 25 μg/ml of pHOT1 having specific site for DNA, 40 units of E. coli Topoisomerase IA and ligands was incubated at 37° C. for 30 min. The reactions was then terminated by adding 1% SDS and 150 μg/m Proteinase K, and incubated further for 1 h at 37° C. The DNA samples was electrophoresed in 1% agarose gel in 0.5×TBE. Ethidium bromide at a finial concentration of 0.5 μg/ml was included in the gel to resolve slowly migrating nicked product (cleavable complex) from the supercoiled DNA molecules.

[3] = Synergistic effect of CCCP and HN12b in neutropenic thigh infection model; assay type: in vivo, Balb/c mice; conditions: HN12b 3 mg/kg bw + CCCP 3 mg/kg bw
Enterococcus sp. (1121) [4] = assay: HN12b in combination with efflux pump inhibitors (CB method, FICI)
Experimental: as §2, §3

E. coli K12 mutant ΔtolC = assay: Susceptibility of E. coli K12 and mutants (MIC90); conditions: Escherichia coli
Experimental: as §1

E. coli 555^R = assay: Susceptibility (MIC, PAE, MBC), broth microdilution; conditions: Escherichia coli
Experimental: as §1

E. coli DH5α = assay: as above; conditions: Escherichia coli
Experimental: as §1

[5] = test system: Klebsiella planticola (K589); assay: Susceptibility (MIC50/MIC90), broth microdilution
Experimental: as §1

E. coli K12 = assay: Susceptibility of E. coli K12 and mutants (MIC90); conditions: Escherichia coli
Experimental: as §1

Enterococcus sp. (1121) [6] = assay: Susceptibility (MIC50/MIC90), broth microdilution
Experimental: as §1

E. coli 59^R = assay: Susceptibility (MIC, PAE, MBC), broth microdilution; conditions: Escherichia coli
Experimental: as §1

Enterococcus sp. (2105) = assay: Susceptibility (MIC50/MIC90), broth microdilution
Experimental: as §1

[7] = test system: E. coli K12 mutant ΔTopIA; assay: Susceptibility of E. coli K12 and mutants (MIC90); conditions: Escherichia coli
Experimental: as §1

Enterococcus sp. (1365) = assay: Susceptibility (MIC50/MIC90), broth microdilution
Experimental: as §1

[8] = test system: K. planticola (MTCC 2272); assay: HN12b in combination with efflux pump inhibitors (CB method, FICI)
Experimental: as §2, §3

[9] = test system: Klebsiella planticola (K235); assay: Susceptibility (MIC50/MIC90), broth microdilution
Experimental: as §1

[10] = test system: Shigella flexineri (MTCC1457); assay: Susceptibility (MIC50/MIC90), broth microdilution; assay type: cell-based
E. coli KK45 = assay: HN12b in combination with efflux pump inhibitors (CB method, FICI)
Experimental: as §2, §3

[11] = test system: Pseudomonas aeruginosa (MTCC 366); assay: Susceptibility (MIC50/MIC90), broth microdilution; conditions: MTCC366
Experimental: as §1

Enterococcus sp. (432) = assay: Susceptibility (MIC50/MIC90), broth microdilution
Experimental: as §1

[12] = ATCC25922, Escherichia coli (ATCC 25922), Table 2
[13] = K. planticola (1164), HN12b + CCCP
[14] = Enterococcus sp. (1121), HN12b + CCCP
[15] = K. planticola (MTCC 2272), HN12b + CCCP

Chain of E. coli Topoisomerase IA (P06612 whole entry): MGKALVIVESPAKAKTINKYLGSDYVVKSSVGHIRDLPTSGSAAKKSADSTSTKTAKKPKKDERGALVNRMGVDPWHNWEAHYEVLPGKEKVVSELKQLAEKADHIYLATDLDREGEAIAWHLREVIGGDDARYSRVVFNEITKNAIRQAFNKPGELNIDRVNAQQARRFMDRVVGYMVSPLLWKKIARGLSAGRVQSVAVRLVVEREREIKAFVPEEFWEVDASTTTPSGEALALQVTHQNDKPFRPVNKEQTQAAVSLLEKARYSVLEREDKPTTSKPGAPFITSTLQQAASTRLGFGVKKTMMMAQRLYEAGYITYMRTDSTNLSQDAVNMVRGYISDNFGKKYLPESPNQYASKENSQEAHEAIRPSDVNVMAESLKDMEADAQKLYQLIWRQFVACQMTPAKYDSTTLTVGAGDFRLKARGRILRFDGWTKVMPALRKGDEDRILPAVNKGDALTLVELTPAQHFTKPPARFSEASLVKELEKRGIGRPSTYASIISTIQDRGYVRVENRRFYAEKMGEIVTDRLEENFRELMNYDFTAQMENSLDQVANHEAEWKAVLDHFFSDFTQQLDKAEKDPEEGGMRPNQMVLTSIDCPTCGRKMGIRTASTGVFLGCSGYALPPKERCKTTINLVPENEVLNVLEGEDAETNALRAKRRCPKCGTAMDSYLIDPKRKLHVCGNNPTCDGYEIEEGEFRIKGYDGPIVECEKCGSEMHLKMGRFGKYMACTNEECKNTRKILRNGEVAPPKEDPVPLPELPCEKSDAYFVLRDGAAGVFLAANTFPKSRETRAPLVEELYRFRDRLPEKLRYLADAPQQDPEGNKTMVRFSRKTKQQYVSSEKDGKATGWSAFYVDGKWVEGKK

CCCN1CCN(c2nc3ccc(-c4nc5ccccc5[nH]4)cc3[nH]2)CC1 [HN12b, 2′-(4-propylpiperazine-1-yl)-1H, 3′H-2,5′-bibenzimidazole]
MBC ([1]; ATCC25922): 4 µg/mL (≈ 11.1 µM) | MIC50 ([1]; ATCC25922, ATCC 25922): 0.2 µg/mL (≈ 0.555 µM) | MIC90 ([1]; ATCC25922, ATCC 25922): 3.3 µg/mL (≈ 9.15 µM) | MIC50 ([1]; ATCC25922, ATCC25922, Table 7): 0.2 ± 0.024 µg/mL (≈ 0.555 µM) | MIC50 [1, 12]: 8 µg/mL (≈ 22.2 µM) | MIC90 [1, 12]: 26.6 µg/mL (≈ 73.8 µM) | ED50 (E. coli ATCC 25922; Escherichia coli, iv, 168 h, Septicemia, ATCC25922, single i.v. bolus, survival over 7 days): 5 mg/kg | in vivo efficacy (E. coli ATCC 25922; Septicaemia model, E. coli ATCC 25922): good in vivo efficacy | FICI (K. planticola (1164); [13]): 0.5 | Interpretation (K. planticola (1164); [13]): Synergy (FICI of ≤0.5 will correspond to synergy) | FICI (K. planticola (1164); K. planticola (1164), HN12b + PAβN): 1 | MIC90 (K. planticola (1164); Klebsiella planticola): 128 µg/mL | MIC90 (E. coli K12 mutant ΔompF): 5.4 µg/mL (≈ 15 µM) | MIC50 [2]: 3.25 µg/mL (≈ 9.02 µM) | MIC90 [2]: 8 µg/mL (≈ 22.2 µM) | mechanism of inhibition (Mg^2+ chelation) (E. coli Topoisomerase IA): chelates Mg^2+ required for, the religation of DNA | in vivo efficacy in combination with CCCP [3]: further improves | MIC90 (Enterococcus sp. (1121) [4]; Enterococcus): 8 µg/mL | FICI (Enterococcus sp. (1121) [4]; [14]): 0.5 | Interpretation (Enterococcus sp. (1121) [4]; [14]): Synergy (FICI of ≤0.5 will correspond to synergy) | FICI (Enterococcus sp. (1121) [4]; Enterococcus sp. (1121), HN12b + PAβN): 1 | MIC90 (E. coli K12 mutant ΔtolC): 0.5 µg/mL (≈ 1.39 µM) | MBC (E. coli 555^R): 8 µg/mL (≈ 22.2 µM) | MIC50 (E. coli 555^R): 4 µg/mL (≈ 11.1 µM) | MIC90 (E. coli 555^R): 6.8 µg/mL (≈ 18.9 µM) | MBC (E. coli DH5α): 0.8 µg/mL (≈ 2.22 µM) | MIC50 (E. coli DH5α): 0.2 µg/mL (≈ 0.555 µM) | MIC90 (E. coli DH5α): 0.2 µg/mL (≈ 0.555 µM) | MIC50 [5]: 7.4 µg/mL (≈ 20.5 µM) | MIC90 [5]: 97.4 µg/mL (≈ 270 µM) | MIC90 (E. coli K12): 8 µg/mL (≈ 22.2 µM) | MIC50 (Enterococcus sp. (1121) [6]): < 0.25 µg/mL | MIC90 (Enterococcus sp. (1121) [6]): 8 µg/mL (≈ 22.2 µM) | MBC (E. coli 59^R): 4 µg/mL (≈ 11.1 µM) | MIC50 (E. coli 59^R): 2 µg/mL (≈ 5.55 µM) | MIC90 (E. coli 59^R): 3.4 µg/mL (≈ 9.43 µM) | MIC50 (Enterococcus sp. (2105)): 28.4 µg/mL (≈ 78.8 µM) | MIC90 (Enterococcus sp. (2105)): 128 µg/mL (≈ 355 µM) | MIC90 [7]: 2.8 µg/mL (≈ 7.77 µM) | MIC50 (Enterococcus sp. (1365)): 0.25 µg/mL (≈ 0.694 µM) | MIC90 (Enterococcus sp. (1365)): 11.2 µg/mL (≈ 31.2 µM) | FICI [8, 15]: 0.5 | Interpretation [8, 15]: Synergy (FICI of ≤0.5 will correspond to synergy) | FICI ([8]; K. planticola (MTCC 2272), HN12b + PAβN): 1 | MIC90 ([8]; Klebsiella planticola, MTCC2272): > 128 µg/mL | MIC50 [9]: 4.52 µg/mL (≈ 12.5 µM) | MIC90 [9]: 84.5 µg/mL (≈ 234 µM) | MIC50 [10]: 1.22 µg/mL (≈ 3.38 µM) | MIC90 [10]: 1.22 µg/mL (≈ 3.38 µM) | FICI (E. coli KK45; E. coli KK45, HN12b + CCCP): 0.3 | Interpretation (E. coli KK45; E. coli KK45, HN12b + CCCP): Synergy (FICI of ≤0.5 will correspond to synergy) | FICI (E. coli KK45; E. coli KK45, HN12b + PAβN): 0.7 | MIC90 (E. coli KK45; Escherichia coli, KK45): 16 µg/mL | MIC50 [11]: 19 µg/mL (≈ 52.7 µM) | MIC90 [11]: 128 µg/mL (≈ 355 µM) | MIC50 (Enterococcus sp. (432)): < 0.25 µg/mL | MIC90 (Enterococcus sp. (432)): 8.25 µg/mL (≈ 22.9 µM)

Reference: US11434227B2, “Broad spectrum antibacterial activity of novel bisbenzimidazoles targeting topoisomerase IA and the synergistic composition of bisbenzimidazole with efflux pump inhibitors against pathogenic bacteria” (Jawaharlal Nehru University (JNU), priority 2016, dated 2022)
